The source of these data is patent EP4635969A1, “NOVEL GLUCOCORTICOID, METHOD FOR PREPARING SAME, AND USE THEREOF” (Tianjin Pharmaceutical Biotechnology Co., Ltd., priority 2022, dated 2024).

Data set [1] concerns the target T1, glucocorticoid receptor (GR) (Homo sapiens, UniProt P04150).
T1 sequence (P04150 521-777): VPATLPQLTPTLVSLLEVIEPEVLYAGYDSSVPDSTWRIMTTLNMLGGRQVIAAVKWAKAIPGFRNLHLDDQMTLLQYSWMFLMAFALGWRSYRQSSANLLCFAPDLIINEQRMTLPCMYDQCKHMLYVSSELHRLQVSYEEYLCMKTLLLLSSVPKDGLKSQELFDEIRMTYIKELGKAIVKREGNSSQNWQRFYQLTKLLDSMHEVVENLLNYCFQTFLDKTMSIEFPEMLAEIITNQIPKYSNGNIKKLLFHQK
Description: Assay for agonist activity on glucocorticoid receptor (luciferase reporter, HEK293 cells transfected with pBIND-GR plasmid). In kind it is cell-based. An outline of the steps: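 Readout is luciferase luminescence, with EC50 derived by nonlinear fitting. Compounds ran at 10 concentrations (4-fold steps, top 10 µM, duplicate wells) on pBIND-GR-transfected HEK293 cells in phenol red-free DMEM plus 5% charcoal-stripped serum; 0.1% DMSO served as blank.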
In general terms: A reporter such as luciferase makes a cellular process visible.

The nature of data set [2]: Stability in animal lung tissue homogenate, skin tissue homogenate and aqueous humor. In kind it is in vitro ADME.
The subject of data set [3] is uveitis model rats. Description: Anti-uveitis pharmacodynamic experiment (LPS model): ocular pathological score. In kind it is in vivo, male SD rats. To be noted: compared with the model group.
Data set [4] has as its system dry eye syndrome model New Zealand rabbits. Description: Dry eye syndrome experiment (benzalkonium chloride model): tear secretion test with phenol red cotton threads. In kind it is in vivo, male New Zealand White rabbits. The following applies: compared with the model group.
Description: (§1) Positive control drug: Fluorometholone Eye Drops (specification: 5 mL/5 mg; Santen Pharmaceutical (CHINA) Co., Ltd.; Lot No.: 1FM6625) was used as the positive control drug and stored at room temperature protected from light until use.
(§2) Thirty male New Zealand White rabbits (conventional grade) were prepared. Six rabbits were randomly selected as the blank control group, and the remaining animals were administered 0.1% benzalkonium chloride to the left eye twice daily (morning and evening) , 10 µL/animal each time. On day 6 of modeling, tear secretion was measured using phenol red cotton threads to determine whether the model was successfully established. […] During the administration, all animals except the blank control group were administered 10 µL of 0.1% benzalkonium chloride to the left eye once daily to maintain dry eye symptoms..
• Test time: D3, D7, D15; • Test animals: All animals were tested before grouping; all enrolled surviving animals were tested after administration; • Test method: Tear secretion was measured using phenol red cotton threads. The tear secretion test paper was folded and placed at the middle and outer 1/3 of the rabbit palpebral conjunctival sac for 1 min. The test paper was then removed, observed, and recorded for its wetting length. The test was repeated 3 times, and the values were averaged.
(§3) The normality and homogeneity of variance were tested by Levene's test. If there was no statistical significance (P > 0.05), one-way analysis of variance (ANOVA) was used for statistical analysis. If ANOVA was statistically significant (P ≤ 0.05), LSD test (parametric method) was used for comparative analysis. If the variance was heterogeneous (P ≤ 0.05), Kruskal-Wallis test was used. If the Kruskal-Wallis test was statistically significant (P ≤ 0.05), Dunnett's test (nonparametric method) was used for comparative analysis.
Data set [5] shares this test system. The data set can be described thus: Dry eye syndrome experiment (benzalkonium chloride model): tear film break-up time. In kind it is in vivo, male New Zealand White rabbits. To be noted: compared with the model group.
Description: as §1, §2
• Test time: D3, D7, D15; • Test animals: All animals were tested before grouping; all enrolled surviving animals were tested after administration; • Test method: 1% Fluorescein sodium was dropped onto the inner side of the rabbit's lower eyelid, 10 µL/animal. The rabbit's eyes were closed and gently massaged to evenly distribute the fluorescein sodium on the eye surface. The rabbit's eyes were then sequentially placed under a slit lamp. The tear film break-up time was observed and recorded as the time from eye opening to the appearance of the first dark spot. If no dark spot appeared, the time was calculated as 60 seconds.
as §3
Data set [6] has as its system intraocular pressure of guinea pigs. Description: Adverse reactions of continuous ocular administration: intraocular pressure. In kind it is in vivo. The procedure, abridged:
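Guinea pigs (300-350 g, both sexes) dosed bilaterally with 5 mg/5 mL ophthalmic suspensions, saline as blank; intraocular pressure measured before dosing and on days 7, 14, 21 and 28.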

Data set [7] deals with epidermal layer in rats. The data set can be described thus: Adverse reactions of continuous dermal administration: thickness of the epidermal layer (H&E sections). In kind it is in vivo, SD rats. The following applies: compared with the blank control group. An outline of the steps:
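SPF SD rats (230-250 g, both sexes) received topical application on a shaved 5 cm × 6 cm back area twice daily for one week, controls receiving blank matrix. Epidermal thickness then quantified on H&E-stained back skin sections at ×40.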

Data set [8] is described as follows: Pharmacokinetic (PK) experiment in rats. In kind it is in vivo, male SD rats. To be noted: same experimental conditions. The procedure, abridged:
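Male SD rats dosed by body weight, oral group fasted overnight until 4 h post-dose. Jugular blood sampled 2 min–24 h into heparin; plasma analysed and PK parameters derived from concentration–time data.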

The EC50 is the concentration at which the effect is half-maximal. High values mean lower potency in that assay, low ones higher potency in that assay. Turning to `C[C@]12C=CC(=O)C=C1CC[C@H]1[C@@H]3C[C@H]4OC(c5ccc(CSC6CCOC6=O)nc5)O[C@@]4(C(=O)CO)[C@@]3(C)C[C@H](O)[C@@]12F` (stereo partly drawn) [Compound 47, (6aS,6bR,7S,8aS,8bS,11aR,12aS,12bS)-6b-Fluoro-7-hydroxy-8b-(2-hydroxyacetyl)-6a,8a-dimethyl-10-(6-(((2-oxotetrahydrofuran-3-yl)thio)methyl)pyridin-3-yl)-1,2,6a,6b,7,8,8a,8b,11a,12,12a,12 b-dodecahydro-4H-naphtho[2',1':4,5]indeno[1,2-d][1,3]dioxol-4-one], the EC50 in data set [1] (GR agonist EC50 (nM), HEK293 cells transfected with pBIND-GR, luciferase signal) was 0.34 nM; in data set [1] (Nuclear receptor enzyme activity (nM) GR, EC50 of agonist activity, HEK293 reporter cells), 0.34 nM. Moreover, the “stability in animal lung tissue homogenate, skin tissue homogenate, and aqueous humor” value in data set [2] is listed as “relatively stable”. Further, the “ocular abnormalities / ocular pathological score” value in data set [3] is “significantly improved ocular abnormalities”. Also, the tear secretion entry in data set [4] is “significantly increased the tear secretion”. Moreover, in data set [5], the “tear film break-up time” value was “significantly increased the tear film break-up time”. In data set [6], the “intraocular pressure after continuous ocular administration” value was “no abnormal intraocular pressure observed”. Besides, the “thickness of the epidermal layer after continuous dermal administration” value in data set [7] is “no significant changes in the thickness of the epidermal layer observed”. In addition, the “pharmacokinetic properties (plasma clearance rate, systemic exposure)” value in data set [8] is “pharmacokinetic properties similar to those of compound 8”.
